Test results reported in patent US20140329797A1, “SUBSTITUTED OXADIAZOLYL PYRIDINONES AND OXADIAZOLYL PYRIDAZINONES AS HIF INHIBITORS” (Bayer Intellectual Property GmbH, priority 2011, published 2014).

System: HCT 116 cells transfected with a luciferase reporter under the control of an HIF-responsive sequence
Assay: HIF-luciferase assay
Type: cell-based
Details: Homo sapiens; HCT 116 HIF-luciferase reporter cells, hypoxia chamber (1% O2), 24 h; in some cases means of up to four individual determinations
Protocol: B-1. HIF-Luciferase Assay
HCT 116 cells were transfected in a stable manner with a plasmid which contained a luciferase reporter under the control of an HIF-responsive sequence. These cells were sown in microtitre plates [20000 cells/cavity in RPMI 1640 medium with 10% foetal calf serum (FCS) and 100 μg/ml of hygromycin]. Incubation was carried out overnight under standard conditions (5% CO2, 21% O2, 37° C., moistened). The following morning the cells were incubated with various concentrations of the test substances (0-10 μmol/l) in a hypoxia chamber (1% O2). After 24 h, Bright Glo reagent (Promega, Wisconsin, USA) was added in accordance with the manufacturer's instructions, and after 5 min the luminescence was measured. Cells which were incubated under normoxia served as background controls.

| SMILES | IC50 [nM] |
| --- | --- |
| O=C(c1cccc(Cn2cc(-c3nc(-c4ccc(OC(F)(F)F)cc4)no3)ccc2=O)c1)N1CCOCC1 [Example 34, 1-[3-(Morpholin-4-ylcarbonyl)benzyl]-5-{3-[4-(trifluoromethoxy)phenyl]-1,2,4-oxadiazol-5-yl}pyridin-2(1H)-one] | 4 |
| CC(C)(c1ccc(-c2noc(-c3ccc(=O)n(Cc4cccc(C(=O)N5CCOCC5)c4)c3)n2)cc1)C(F)(F)F [Example 35, 1-[3-(Morpholin-4-ylcarbonyl)benzyl]-5-{3-[4-(1,1,1-trifluoro-2-methylpropan-2-yl)phenyl]-1,2,4-oxadiazol-5-yl}pyridin-2(1H)-one] | 20 |
| CN1CCN(C(=O)c2cccc(Cn3cc(-c4nc(-c5ccc(OC(F)(F)F)cc5)no4)ccc3=O)c2)CC1 [Example 36, 1-{3-[(4-Methylpiperazin-1-yl)carbonyl]benzyl}-5-{3-[4-(trifluoromethoxy)phenyl]-1,2,4-oxadiazol-5-yl}pyridin-2(1H)-one] | 5 |
| CN1CCN(C(=O)c2cccc(Cn3cc(-c4nc(-c5ccc(C(C)(C)C(F)(F)F)cc5)no4)ccc3=O)c2)CC1 [Example 37, 1-{3-[(4-Methylpiperazin-1-yl)carbonyl]benzyl}-5-{3-[4-(1,1,1-trifluoro-2-methylpropan-2-yl)phenyl]-1,2,4-oxadiazol-5-yl}pyridin-2(1H)-one] | 10 |
| O=C(c1cccc(Cn2cc(-c3nc(-c4ccc(OC(F)(F)F)cc4)no3)ccc2=O)c1)N1CCN(C2CC2)CC1 [Example 38, 1-{3-[(4-Cyclopropylpiperazin-1-yl)carbonyl]benzyl}-5-{3-[4-(trifluoromethoxy)phenyl]-1,2,4-oxadiazol-5-yl}pyridin-2(1H)-one] | 3 |
| CC(C)(c1ccc(-c2noc(-c3ccc(=O)n(Cc4cccc(C(=O)N5CCN(C6CC6)CC5)c4)c3)n2)cc1)C(F)(F)F [Example 39, 1-{3-[(4-Cyclopropylpiperazin-1-yl)carbonyl]benzyl}-5-{3-[4-(1,1,1-trifluoro-2-methylpropan-2-yl)phenyl]-1,2,4-oxadiazol-5-yl}pyridin-2(1H)-one] | 5 |
| CC(=O)OC1(c2cccc(Cn3cc(-c4nc(-c5ccc(OC(F)(F)F)cc5)no4)ccc3=O)c2)CC1 [Example 40, 1-(3-{[2-Oxo-5-{3-[4-(trifluoromethoxy)phenyl]-1,2,4-oxadiazol-5-yl}pyridin-1(2H)-yl]methyl}phenyl)cyclopropyl acetate] | 2.5 |
| CC(C)(O)Cc1cccc(Cn2cc(-c3nc(-c4ccc(OC(F)(F)F)cc4)no3)ccc2=O)c1 [Example 41, 1-[3-(2-Hydroxy-2-methylpropyl)benzyl]-5-{3-[4-(trifluoromethoxy)phenyl]-1,2,4-oxadiazol-5-yl}pyridin-2(1H)-one] | 5 |
| CC(C)(O)Cc1cccc(Cn2cc(-c3nc(-c4ccc(C(C)(C)C(F)(F)F)cc4)no3)ccc2=O)c1 [Example 42, 1-[3-(2-Hydroxy-2-methylpropyl)benzyl]-5-{3-[4-(1,1,1-trifluoro-2-methylpropan-2-yl)phenyl]-1,2,4-oxadiazol-5-yl}pyridin-2(1H)-one] | 8 |
| O=c1ccc(-c2nc(-c3ccc(OC(F)(F)F)cc3)no2)cn1Cc1cccc(C2(CO)CC2)c1 [Example 43, 1-{3-[1-(Hydroxymethyl)cyclopropyl]benzyl}-5-{3-[4-(trifluoromethoxy)phenyl]-1,2,4-oxadiazol-5-yl}pyridin-2(1H)-one] | 10 |
| CC(C)(c1ccc(-c2noc(-c3ccc(=O)n(Cc4cccc(C5(CO)CC5)c4)c3)n2)cc1)C(F)(F)F [Example 44, 1-{3-[1-(Hydroxymethyl)cyclopropyl]benzyl}-5-{3-[4-(1,1,1-trifluoro-2-methylpropan-2-yl)phenyl]-1,2,4-oxadiazol-5-yl}pyridin-2(1H)-one] | 15 |
| N#CC1CCN(c2cc(Cn3cc(-c4nc(-c5ccc(OC(F)(F)F)cc5)no4)ccc3=O)ccn2)CC1 [Example 45, 1-(4-{[2-oxo-5-{3-[4-(trifluoromethoxy)phenyl]-1,2,4-oxadiazol-5-yl}pyridin-1(2H)-yl]methyl}pyridin-2-yl)piperidine-4-carbonitrile] | 5 |
| CN1CCN(c2cc(Cn3cc(-c4nc(-c5ccc(SC(F)(F)F)cc5)no4)ccc3=O)ccn2)CC1 [Example 47, 1-{[2-(4-Methylpiperazin-1-yl)pyridin-4-yl]methyl}-5-(3-{4-[(trifluoromethyl)sulphanyl]phenyl}-1,2,4-oxadiazol-5-yl)pyridin-2(1H)-one] | 40 |
| CN1CCN(c2cc(Cn3cc(-c4nc(-c5ccc(C6(C(F)(F)F)CC6)cc5)no4)ccc3=O)ccn2)CC1 [Example 48, 1-{[2-(4-Methylpiperazin-1-yl)pyridin-4-yl]methyl}-5-(3-{4-[1-(trifluoromethyl)cyclopropyl]phenyl}-1,2,4-oxadiazol-5-yl)pyridin-2(1H)-one] | 50 |
| O=c1ccc(-c2nc(-c3ccc(OC(F)(F)F)cc3)no2)cn1Cc1ccnc(N2CCN(CC(F)(F)F)CC2)c1 [Example 49, 1-({2-[4-(2,2,2-Trifluoroethyl)piperazin-1-yl]pyridin-4-yl}methyl)-5-{3-[4-(trifluoromethoxy)phenyl]-1,2,4-oxadiazol-5-yl}pyridin-2(1H)-one] | 3 |
| O=c1ccc(-c2nc(-c3ccc(OC(F)(F)F)cc3)no2)cn1Cc1ccnc(N2CCN(C3CC3)CC2)c1 [Example 51, 1-{[2-(4-Cyclopropylpiperazin-1-yl)pyridin-4-yl]methyl}-5-{3-[4-(trifluoromethoxy)phenyl]-1,2,4-oxadiazol-5-yl}pyridin-2(1H)-one] | 2 |
| O=c1ccc(-c2nc(-c3ccc(SC(F)(F)F)cc3)no2)cn1Cc1ccnc(N2CCN(C3CC3)CC2)c1 [Example 52, 1-{[2-(4-Cyclopropylpiperazin-1-yl)pyridin-4-yl]methyl}-5-(3-{4-[(trifluoromethyl)sulphanyl]phenyl}-1,2,4-oxadiazol-5-yl)pyridin-2(1H)-one] | 5 |
| CC(C)(c1ccc(-c2noc(-c3ccc(=O)n(Cc4ccnc(N5CCN(C6CC6)CC5)c4)c3)n2)cc1)C(F)(F)F [Example 53, 1-{[2-(4-Cyclopropylpiperazin-1-yl)pyridin-4-yl]methyl}-5-{3-[4-(1,1,1-trifluoro-2-methylpropan-2-yl)phenyl]-1,2,4-oxadiazol-5-yl}pyridin-2(1H)-one] | 4 |
| O=c1ccc(-c2nc(-c3ccc(C4(C(F)(F)F)CC4)cc3)no2)cn1Cc1ccnc(N2CCN(C3CC3)CC2)c1 [Example 54, 1-{[2-(4-Cyclopropylpiperazin-1-yl)pyridin-4-yl]methyl}-5-(3-{4-[1-(trifluoromethyl)cyclopropyl]phenyl}-1,2,4-oxadiazol-5-yl)pyridin-2(1H)-one] | 4 |
| CC(=O)N1CCN(c2cc(Cn3cc(-c4nc(-c5ccc(SC(F)(F)F)cc5)no4)ccc3=O)ccn2)CC1 [Example 55, 1-{[2-(4-Acetylpiperazin-1-yl)pyridin-4-yl]methyl}-5-(3-{4-[(trifluoromethyl)sulphanyl]phenyl}-1,2,4-oxadiazol-5-yl)pyridin-2(1H)-one] | 20 |
| CNc1ccc(Cn2cc(-c3nc(-c4ccc(OC(F)(F)F)cc4)no3)ccc2=O)cn1 [Example 59, 1-{[6-(Methylamino)pyridin-3-yl]methyl}-5-{3-[4-(trifluoromethoxy)phenyl]-1,2,4-oxadiazol-5-yl}pyridin-2(1H)-one] | 12.5 |
